Data from patent US20060190186A1, “Viral polymerase and modulation thereof” (Melbourne Health, priority 2003, published 2006).

Experiments:
[1] = system: recombinant HBV encoding the mutant rtS85A; assay: Antiviral testing: HBV replicative intermediates by Southern blot in Huh7 cells transfected with HBV plasmid encoding rtS85A; type: cell-based, hepatitis B virus; conditions: for IC50: Hepatitis B virus, Huh-7
From the text: (§1) The plasmid containing 1.3×HBV genome in the vector pBlueBac4.5 was used as the infectious HBV clone. This clone already had the precore mutation at G1896A. The point mutation were created by site directed mutagenesis using the commercial kits according to the manufacturers specifications (QuikChange, Stratagene). A HBV recombinant encoding the reverse transcriptase mutations rtS85A was created. The nucleotide sequence of the plasmid and the point mutations generated by site directed mutagenesis were confirmed by sequencing using the ABI Prism Big Dye Terminator Cycle Sequencing Ready Reaction Kit according to the manufacturer's specifications (Perkin Elmer, Cetus Norwalk, Conn.).
(§2) Huh7 cells were seeded at approximately 20-40% confluency and then were grown for 16-24 hours before transfection. Plasmid DNA containing HBV encoding specific mutations was transfected using Fugene according to the manufacturers protocols.
ADV and LMV were resuspended in sterile water, aliquoted, and frozen at −20° C. to avoid repeated freezing and thawing of the drug. Medium containing ADV or LMV were prepared daily as needed. In experiments in which ADV or LMV treatment was initiated […] transfection, Huh7 cells were exposed to the indicated concentration of ADV or LMV immediately after transfection with the HBV plasmid.
HBV core particles were isolated from the cytoplasmic fraction of Huh7 cells lysis buffer which includes 0.5% w/v NP-40. Cytoplasmic extracts were treated with DNAse, adjusted to 10 mmol/l […] and unprotected DNA was removed by an incubation to 500 µg/ml Proteinase K for 1.5 hours at 37° C. HBV DNA in the samples were then extracted using commercial DNA extraction kits such as Qiagen (DNA extraction) or in-house methods using sequential phenol and chloroform extractions, and the nucleic acids were recovered by ethanol precipitation. […] After southern blot analysis a BioRad Phosphoimager and the Quantity One Analysis software (BioRad, Hecules Calif.) was used to analyze suitable exposures of Southern blots. […]

[2] = system: HBV precore mutant (G1896A); assay: Antiviral testing: HBV replicative intermediates by Southern blot in Huh7 cells transfected with HBV plasmid (precore mutant); type: cell-based; conditions: Hepatitis B virus, Huh-7
From the text: as §1, §2
ADV and LMV were resuspended in sterile water, aliquoted, and frozen at −20° C. to avoid repeated freezing and thawing of the drug. […]
HBV core particles were isolated from the cytoplasmic fraction of Huh7 cells lysis buffer which includes 0.5% w/v NP-40. […] After southern blot analysis a BioRad Phosphoimager and the Quantity One Analysis software (BioRad, Hecules Calif.) was used to analyze suitable exposures of Southern blots. […]

SMILES	IC50 [1] [nM]	IC50 [2] [nM]	sensitivity of recombinant HBV to drug ([1]; recombinant HBV encoding the mutant rtS85A)
Nc1ccn([C@@H]2CS[C@H](CO)O2)c(=O)n1 [LMV, (−)-β-2′-deoxy-3′-thiacytidine]	10	5	–
Nc1ncnc2c1ncn2CCOCP(=O)(O)O [ADV, adefovir]	5000 to 10000	430	reduced sensitivity
